US11453632B2, “1-phenyl-2-phenylethane derivative” (KAO CORPORATION, priority 2018, dated 2022)

Key:
ERα LBD = molecular target: T1, ERα LBD (Homo sapiens, UniProt P03372); assay: Ability to bind to ERα: pBIND-ERα LBD / GAL4 luciferase reporter in HEK293 cells; format: cell-based; design: key: firefly luciferase / Renilla luciferase luminescence ratio; conditions: negative control 0.00847035
T1 construct: host or cells: HEK293
T1 sequence (P03372 311-547 limits assumed): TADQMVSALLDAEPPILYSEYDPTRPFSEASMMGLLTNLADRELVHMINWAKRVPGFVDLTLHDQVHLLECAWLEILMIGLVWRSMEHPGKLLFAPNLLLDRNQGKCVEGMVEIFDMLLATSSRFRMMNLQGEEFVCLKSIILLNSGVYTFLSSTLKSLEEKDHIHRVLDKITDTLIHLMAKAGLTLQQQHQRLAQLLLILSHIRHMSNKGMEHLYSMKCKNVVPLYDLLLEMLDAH
Procedure: (§1) A human kidney-derived cell line HEK293 was cultured (37° C., 5% CO2) in Dulbecco's modified Eagle medium (hereinafter, abbreviated to DMEM) containing 10% (v/v) fetal bovine serum (FBS) and penicillin/streptomycin.
(§2) 2) Measurement of Binding Activity Against ERs
(§3) Specifically, HEK293 cells were inoculated at a cell density of 4.0×10^4 cells/well to a 96-well plate. After 12 hours therefrom, the medium was replaced with a culture solution (DMEM containing 5% (v/v) charcoal-treated serum). The cells were cotransfected with pBIND-ERα for the expression of ERα LBD or pBIND-ERβ for the expression of ERβ LBD (Promega Corp.) and pGL4.35[luc2P/9XGAL4UAS/Hygro](Promega Corp.) using Lipofectamine 2000 (Invitrogen Corp.) according to the protocol attached to the product. 24 hours after transfection, the medium was replaced with a culture solution containing a test sample, followed by culture for another 24 hours. The activity measurement of firefly luciferase (index for the ligand binding activity of ER) and Renilla reniformis luciferase (index for the transfection efficiency of the plasmids) was carried out using Dual-Glo™ Luciferase Assay System (Promega Corp.) according to the attached protocol. The luminescence intensity of the firefly luciferase was divided by the luminescence intensity of the Renilla reniformis luciferase to calculate a relative light unit (RLU).

ERβ LBD = molecular target: T2, ERβ LBD (Homo sapiens, UniProt Q92731); assay: Ability to bind to ERβ: pBIND-ERβ LBD / GAL4 luciferase reporter in HEK293 cells; format: cell-based; design: key: RLU = firefly luminescence / Renilla luminescence; conditions: negative control 0.0118997
T2 construct: host or cells: HEK293
Procedure: This evaluation system is a system exploiting difference in the sequence of the ligand binding domain (LBD) between ERα and ERβ (J Endocrinol 163: 379-383 (1999)), and enables selective activation of ERβ to be evaluated by determining the binding of a ligand to LBD and the activation of ER.
as §1, §2
as §3, with “This measurement was carried out according to the method described in JP-B-5990058. Specifically,” for “Specifically,”

T2 sequence (Q92731 264-498 limits assumed): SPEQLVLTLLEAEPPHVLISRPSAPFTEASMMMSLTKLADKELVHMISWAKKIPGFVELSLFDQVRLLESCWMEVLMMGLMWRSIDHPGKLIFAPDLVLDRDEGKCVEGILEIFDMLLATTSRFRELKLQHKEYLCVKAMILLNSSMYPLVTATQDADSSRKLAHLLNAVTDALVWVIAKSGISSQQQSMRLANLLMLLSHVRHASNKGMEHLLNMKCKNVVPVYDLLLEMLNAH

Row | Structure (SMILES) | relative light unit (RLU), ligand binding activity ERα (ERα LBD; 1 nM) | relative light unit (RLU), ligand binding activity ERα (ERα LBD; 10 nM) | relative light unit (RLU), ligand binding activity ERα (ERα LBD; 100 nM) | relative light unit (RLU), ligand binding activity ERβ (ERβ LBD; 1 nM) | relative light unit (RLU), ligand binding activity ERβ (ERβ LBD; 10 nM) | relative light unit (RLU), ligand binding activity ERβ (ERβ LBD; 100 nM) | relative light unit (RLU), ligand binding activity ERβ (ERβ LBD; 0.01 nM) | relative light unit (RLU), ligand binding activity ERβ (ERβ LBD; 0.1 nM) | relative light unit (RLU), ligand binding activity ERα (ERα LBD; 0.01 nM) | relative light unit (RLU), ligand binding activity ERα (ERα LBD; 0.1 nM)
1 | CCC(C)C(Cc1ccc(O)cc1)c1ccc(O)cc1 (stereo not drawn) [Compound 6, 4,4′-(3-methylpentane-1,2-diyl)diphenol] | 0.008097 | 0.01098 | 0.01183 | 0.01046 | 0.02031 | 0.2041 | – | – | – | –
2 | Oc1ccc(CC(C=CF)c2ccc(O)cc2)cc1 (stereo not drawn) [Compound 8, 4,4′-(4-fluorobut-3-ene-1,2-diyl)diphenol] | 0.007223 | 0.1184 | 0.423 | 0.9979 | 1.068 | 1.031 | 0.01223 | 0.5254 | 0.005812 | 0.005926
3 | Oc1ccc(CC(c2ccc(O)cc2)c2ccn[nH]2)cc1 (stereo not drawn) [Compound 12, 4,4′-(1-(1H-pyrazol-5-yl)ethane-1,2-diyl)diphenol] | 0.01753 | 0.01191 | 0.008685 | 0.03073 | 0.02066 | 0.026 | 0.01836 | 0.01732 | 0.006803 | 0.02077
4 | Oc1ccc(CC(c2ccc(O)cc2)c2cnco2)cc1 (stereo not drawn) [Compound 13, 4,4′-(1-(oxazol-5-yl)ethane-1,2-diyl)diphenol] | 0.01285 | 0.01611 | 0.01431 | 0.02471 | 0.04313 | 0.8322 | 0.01293 | 0.01887 | 0.01362 | 0.006796
5 | Oc1ccc(CC(C=C(Cl)Cl)c2ccc(O)cc2F)c(F)c1 (stereo not drawn) [Compound 17-Cl, 4,4′-(4,4-dichlorobut-3-ene-1,2-diyl)bis(3-fluorophenol)] | 0.05395 | 0.92 | 2.707 | 1.22 | 1.682 | 2.029 | 0.04108 | 0.116 | 0.03467 | 0.03125

Continued, values first:

Row | relative light unit (RLU), ligand binding activity ERα (ERα LBD; 1 nM) | relative light unit (RLU), ligand binding activity ERα (ERα LBD; 10 nM) | relative light unit (RLU), ligand binding activity ERα (ERα LBD; 100 nM) | relative light unit (RLU), ligand binding activity ERβ (ERβ LBD; 1 nM) | relative light unit (RLU), ligand binding activity ERβ (ERβ LBD; 10 nM) | relative light unit (RLU), ligand binding activity ERβ (ERβ LBD; 100 nM) | relative light unit (RLU), ligand binding activity ERβ (ERβ LBD; 0.01 nM) | relative light unit (RLU), ligand binding activity ERβ (ERβ LBD; 0.1 nM) | relative light unit (RLU), ligand binding activity ERα (ERα LBD; 0.01 nM) | relative light unit (RLU), ligand binding activity ERα (ERα LBD; 0.1 nM) | Structure (SMILES)
6 | 0.01123 | 0.01001 | 0.03514 | 0.04726 | 0.7801 | 0.674 | – | – | – | – | Oc1ccc(CC(c2ccc(O)cc2)C2CC2)cc1 (stereo not drawn) [Compound 1, 4,4′-(1-cyclopropylethane-1,2-diyl)diphenol]
7 | 0.006803 | 0.008307 | 0.319 | 0.9744 | 1.153 | 1.216 | 0.01699 | 0.1395 | – | – | CC=CC(Cc1ccc(O)cc1)c1ccc(O)cc1 (stereo not drawn) [Compound 5, 4,4′-(pent-3-ene-1,2-diyl)diphenol]
8 | 0.008272 | 0.0163 | 0.01156 | 0.01539 | 0.0134 | 0.2211 | – | – | – | – | O=C(NC(Cc1ccc(O)cc1)c1ccc(O)cc1)C(F)(F)F (stereo not drawn) [Compound 10, N-(1,2-bis(4-hydroxyphenyl)ethyl)-2,2,2-trifluoroacetamide]
9 | 0.02004 | 0.01493 | 0.02047 | 0.02069 | 0.08851 | 0.9946 | 0.02708 | 0.02188 | 0.01031 | 0.01495 | Oc1ccc(CC(c2ccc(O)cc2)c2ncon2)cc1 (stereo not drawn) [Compound 14, 4,4′-(1-(1,2,4-oxadiazol-3-yl)ethane-1,2-diyl)diphenol]
10 | 0.01714 | 0.0182 | 0.0245 | 0.01759 | 0.06729 | 0.8625 | 0.0173 | 0.02216 | 0.01424 | 0.01773 | Oc1ccc(CC(c2ccc(O)cc2)c2cocn2)cc1 (stereo not drawn) [Compound 16, 4,4′-(1-(oxazol-4-yl)ethane-1,2-diyl)diphenol]
11 | 0.122 | 2.2626 | 3.229 | 1.819 | 1.997 | 2.261 | 0.07422 | 0.4259 | 0.0398 | 0.04255 | Oc1ccc(C(C=C(Cl)Cl)Cc2c(F)cc(O)cc2F)cc1 (stereo not drawn) [Compound 18-Cl, 4-(4,4-dichloro-2-(4-hydroxyphenyl)but-3-en-1-yl)-3,5-difluorophenol]
